Data published in US7759350B2, “Pyrimidine carboxamides” (Orchid Research Laboratories Ltd., priority 2005, dated 2010).

How the values were obtained:
DU145 = experiment: Anti-cancer screen (MTT), DU145; type: cell-based; conditions: Homo sapiens, DU-145, 48 hours
IL-6 = experiment: In vitro measurement of IL-6 in human PBMC; type: cell-based; conditions: Conc. 0.1 μM, LPS
Method in brief: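 Human PBMC (0.5 million/well) preincubated with compound 15 min at 37° C., then stimulated with E. coli LPS (1 μg/ml) for 18 h at 37° C. Cytokine in culture medium quantified by ELISA.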

[1] = target: purified recombinant COX-1 enzyme (Homo sapiens, UniProt P23219); experiment: COX-1 enzyme based assay; type: biochemical; conditions: Conc. 10 μM
Chain of purified recombinant COX-1 enzyme (P23219 24-599): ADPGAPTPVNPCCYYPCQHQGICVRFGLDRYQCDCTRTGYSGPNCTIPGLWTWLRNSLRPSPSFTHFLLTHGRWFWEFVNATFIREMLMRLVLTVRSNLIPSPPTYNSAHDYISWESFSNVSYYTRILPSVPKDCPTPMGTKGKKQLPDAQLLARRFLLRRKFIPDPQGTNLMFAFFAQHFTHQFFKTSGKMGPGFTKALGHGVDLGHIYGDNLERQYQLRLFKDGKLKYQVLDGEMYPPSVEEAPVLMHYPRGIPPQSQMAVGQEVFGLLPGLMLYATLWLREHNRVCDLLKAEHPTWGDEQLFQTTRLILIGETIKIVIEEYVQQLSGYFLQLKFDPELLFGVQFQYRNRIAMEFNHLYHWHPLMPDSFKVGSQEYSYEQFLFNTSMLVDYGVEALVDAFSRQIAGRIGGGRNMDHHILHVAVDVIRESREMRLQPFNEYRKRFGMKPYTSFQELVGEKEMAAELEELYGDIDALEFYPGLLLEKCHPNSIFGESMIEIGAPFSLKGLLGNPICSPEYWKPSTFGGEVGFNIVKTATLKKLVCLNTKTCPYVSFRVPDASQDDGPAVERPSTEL
Description: COX-1 and COX-2 Enzyme Based Assay
COX-2 enzyme based assays were carried out to check the inhibitory potential of test compounds on the production of prostaglandin by purified recombinant COX-1/COX-2 enzyme (Proc. Nat. Acad. Sci. USA, 88, 2692-2696, 1991; Clin. Immunoassay 15, 116-120, 1992) In this assay, the potential of the test compound to inhibit the production of prostaglandin either by COX-1 or COX-2 from arachidonic acid (substrate) was measured. This was an enzyme based in-vitro assay to evaluate selective COX inhibition with good reproducibility.
Arachidonic acid was converted to PGH2 (Intermediate product) by COX1/COX-2 in presence or absence of the test compound. The reaction was carried out at 37° C. and after 2 minutes it was stopped by adding 1M HCl. Intermediate products PGH2 was converted to a stable Prostanoid product PGF2α by SnCl2 reduction. The amount of PGF2α produced in the reaction was inversely proportional to the COX inhibitory potential of the test compound. The prostanoid product was quantified via enzyme immunoassay (EIA) using a broadly specific antibody that binds to all the major forms of Prostaglandin, using Cayman ELISA kit as per the procedure outlined by the manufacturer Cayman Chemicals, Ann Arbor, USA).

[2] = test system: Carrageenan induced paw edema in rat; experiment: Carrageenan induced paw edema test in rat; type: in vivo; conditions: 5 mg/kg oral; male wistar rats; 3 hours after carrageenan
Description: Carrageenan Induced Paw Edema Test in Rat
The carrageenan paw edema test was performed as described by Winter et al (Proc. Soc. Exp. Biol. Med, 111, 544, 1962). Male wistar rats were selected with body weights equivalent within each group. The rats were fasted for eighteen hours with free access to water. The rats were dosed orally with the test compound suspended in vehicle containing 0.25% carboxymethylcellulose and 0.5% Tween 80. The control rats were administered with vehicle alone. After an hour, the rats were injected with 0.1 ml of 1% Carrageenan solution in 0.9% saline into the sub-plantar surface of the right hind paw. Paw volume was measured using digital plethysmograph before and after 3 hours of carrageenan injection. The average of foot swelling in drug treated animals was compared with that of control animals. Anti-inflammatory activity was expressed as the percentage inhibition of edema compared with control group [Arzneim-Forsch/Drug Res., 43 (I), 1,44-50,1993; Otterness and Bliven, Laboratory Models for Testing NSAIDs, In Non-Steroidal Anti-Inflammatory Drugs, (J. Lombardino, ed. 1985)].

NCI-H460 = experiment: Anti-cancer screen (MTT), NCI-H460; type: cell-based; conditions: Homo sapiens, NCI-H460; 48 hours, MTT

GI50 (DU145): 2.75 µM | COX-1 Inhibition (%) [1]: Not Active | GI50 (NCI-H460): 5.15 µM
Compound: CNc1nc(-c2ccncc2)nc(SC)c1C(=O)Nc1ccc(OC)cc1 [Example 14, N-(4-Methoxyphenyl)-4-(methylamino)-6-(methylthio)-2-pyridin-4-ylpyrimidine-5-carboxamide]
inhibition at 0.1 µM (IL-6): 28.2% | Inhibition of edema (%) at 5 mg/kg [2]: 31.02%
